# Experimental data from ChEMBL document CHEMBL1909294, “Translating clinical findings into knowledge in drug safety evaluation--drug induced liver injury prediction system (DILIps)” (PLoS Comput Biol, 2011).
# *1 amine or outer side, *2 acyl side, *3 side chain or, on linkers, in order; H or OH if unused. Where a SMILES comes first, the peptide text is derived from it. Bridges are numbered along the chain shown (N, C = ends). [ ]: non-standard residue; d: D form. The star is where a group is joined. hTyr(3S-OH,4S-OH,3'-OSO3H) = N[C@H](C(=O)O)[C@H](O)[C@@H](O)c1ccc(O)c(OS(=O)(=O)O)c1; Orn(4R-OH,5R-OH) = O=C([C@H](C[C@@H](O)[C@@H](O)N[*:3])N[*:1])[*:2]; Pro(3S-OH,4S-Me) = C[C@H]1CN[C@H](C(=O)O)[C@H]1O; X1 = CCCCCOc1ccc(-c2cc(-c3ccc(C(=O)*)cc3)no2)cc1; Gln(3R-OH) = NC(=O)C[C@@H](O)[C@H](N)C(=O)O; Hyp = O=C(O)[C@@H]1C[C@@H](O)CN1
# Tests used:
# Hepatotoxicity [1] = tested on: Hepatotoxicity;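 as to HepSE bilirubinemia: bilirubinemia hepatic side effect score drawn from the DILIps training data, a prediction system for drug-induced liver injury; call rule not given here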;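 as to HepSE cholecystitis: Cholecystitis-related hepatic side effect score drawn from the DILIps (drug-induced liver injury prediction) training data set; call rule not given here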;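 as to HepSE cirrhosis: cirrhosis hepatic side effect score taken from the DILIps (drug-induced liver injury prediction) training set; call rule not given here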;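 as to HepSE elevated liver function tests: hepatic side effect score for raised liver function tests, as recorded in the DILIps training set used for predicting drug-induced liver injury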;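 as to HepSE jaundice: Jaundice-related hepatic side-effect score drawn from the training data of the DILIps (drug-induced liver injury prediction system); call rule not given here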;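 as to HepSE liver fatty: hepatic side effect score for fatty liver, taken from the DILIps training set for predicting drug-induced liver injury; call rule not given here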
# Hepatotoxicity [2] = tested on: Hepatotoxicity; remark: listed apart in the source;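 as to HepSE bilirubinemia: bilirubinemia hepatic side effect score drawn from the DILIps training data, a prediction system for drug-induced liver injury; call rule not given here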;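 as to HepSE cholecystitis: Cholecystitis-related hepatic side effect score drawn from the DILIps (drug-induced liver injury prediction) training data set; call rule not given here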;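 as to HepSE cirrhosis: cirrhosis hepatic side effect score taken from the DILIps (drug-induced liver injury prediction) training set; call rule not given here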;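 as to HepSE elevated liver function tests: hepatic side effect score for raised liver function tests, as recorded in the DILIps training set used for predicting drug-induced liver injury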;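 as to HepSE jaundice: Jaundice-related hepatic side-effect score drawn from the training data of the DILIps (drug-induced liver injury prediction system); call rule not given here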;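 as to HepSE liver fatty: hepatic side effect score for fatty liver, taken from the DILIps training set for predicting drug-induced liver injury; call rule not given here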
# Hepatotoxicity [3] = tested on: Hepatotoxicity; remark: listed apart in the source;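 as to HepSE bilirubinemia: bilirubinemia hepatic side effect score drawn from the DILIps training data, a prediction system for drug-induced liver injury; call rule not given here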;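 as to HepSE cholecystitis: Cholecystitis-related hepatic side effect score drawn from the DILIps (drug-induced liver injury prediction) training data set; call rule not given here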;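 as to HepSE cirrhosis: cirrhosis hepatic side effect score taken from the DILIps (drug-induced liver injury prediction) training set; call rule not given here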;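 as to HepSE elevated liver function tests: hepatic side effect score for raised liver function tests, as recorded in the DILIps training set used for predicting drug-induced liver injury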;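 as to HepSE jaundice: Jaundice-related hepatic side-effect score drawn from the training data of the DILIps (drug-induced liver injury prediction system); call rule not given here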;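 as to HepSE liver fatty: hepatic side effect score for fatty liver, taken from the DILIps training set for predicting drug-induced liver injury; call rule not given here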
# Hepatotoxicity [4] = tested on: Hepatotoxicity; remark: listed apart in the source;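 as to HepSE bilirubinemia: bilirubinemia hepatic side effect score drawn from the DILIps training data, a prediction system for drug-induced liver injury; call rule not given here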;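 as to HepSE cholecystitis: Cholecystitis-related hepatic side effect score drawn from the DILIps (drug-induced liver injury prediction) training data set; call rule not given here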;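 as to HepSE cirrhosis: cirrhosis hepatic side effect score taken from the DILIps (drug-induced liver injury prediction) training set; call rule not given here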;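 as to HepSE elevated liver function tests: hepatic side effect score for raised liver function tests, as recorded in the DILIps training set used for predicting drug-induced liver injury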;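 as to HepSE liver fatty: hepatic side effect score for fatty liver, taken from the DILIps training set for predicting drug-induced liver injury; call rule not given here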
# Hepatotoxicity [5] = tested on: Hepatotoxicity; remark: listed apart in the source
# Hepatotoxicity [6] = tested on: Hepatotoxicity; remark: listed apart in the source
# Hepatotoxicity [7] = tested on: Hepatotoxicity; remark: listed apart in the source
# Hepatotoxicity [8] = tested on: Hepatotoxicity; remark: listed apart in the source
# Hepatotoxicity [9] = tested on: Hepatotoxicity; remark: listed apart in the source
# Hepatotoxicity [10] = tested on: Hepatotoxicity; remark: listed apart in the source
# Hepatotoxicity [11] = tested on: Hepatotoxicity; remark: listed apart in the source
# Hepatotoxicity [12] = tested on: Hepatotoxicity; remark: listed apart in the source
# Hepatotoxicity [13] = tested on: Hepatotoxicity; remark: listed apart in the source
# Hepatotoxicity [14] = tested on: Hepatotoxicity; remark: listed apart in the source
SMILES,HepSE_cholecystitis (Hepatotoxicity [1]),HepSE_elevated liver function tests (Hepatotoxicity [2]),HepSE_liver fatty (Hepatotoxicity [3]),HepSE_bilirubinemia (Hepatotoxicity [4]),HepSE_cirrhosis (Hepatotoxicity [5]),HepSE_hepatitis (Hepatotoxicity [6]),HepSE_jaundice (Hepatotoxicity [7]),HepSE_liver function tests abnormal (Hepatotoxicity [8]),HepSE_Combined Scores (Hepatotoxicity [9]),HepSE_hepatic failure (Hepatotoxicity [10]),HepSE_hepatomegaly (Hepatotoxicity [11]),HepSE_liver disease (Hepatotoxicity [12]),HepSE_cholelithiasis (Hepatotoxicity [13]),HepSE_hepatic necrosis (Hepatotoxicity [14]),further results
C[C@H]1C[C@@H]2[C@H]([C@@H](O)C[C@@]3(C)[C@H]2CC[C@]3(O)C(=O)CO)[C@@]2(C)C=CC(=O)C=C12 [METHYLPREDNISOLONE],0,0,0,0,0,0,0,0,0,0,0,0,0,0,
C[C@]12CCC(=O)C=C1CC[C@@H]1[C@@H]2CC[C@@]2(C)[C@H]1CC[C@]2(C)O [METHYLTESTOSTERONE],0,0,0,0,0,0,1,0,1,0,0,0,0,0,
CC[C@@H](CO)NC(=O)[C@@H]1C=C2c3cccc4c3c(cn4C)C[C@H]2N(C)C1 [METHYSERGIDE],0,0,0,0,0,0,0,0,0,0,0,0,0,0,
CC(=O)Oc1c(C)cc(OCC(O)CNC(C)C)c(C)c1C (stereo not drawn) [METIPRANOLOL],0,0,0,0,0,0,0,0,0,0,0,0,0,0,
CCN(CC)CCNC(=O)c1cc(Cl)c(N)cc1OC [METOCLOPRAMIDE],0,0,0,0,0,0,1,0,1,0,0,0,0,0,
Cc1ccccc1N1C(=O)c2cc(S(N)(=O)=O)c(Cl)cc2NC1C (stereo not drawn) [METOLAZONE],0,0,0,0,0,1,1,0,2,0,0,0,0,0,
COCCc1ccc(OCC(O)CNC(C)C)cc1 (stereo not drawn) [METOPROLOL],0,0,0,0,0,1,1,0,2,0,0,0,0,0,
Cc1ncc([N+](=O)[O-])n1CCO [METRONIDAZOLE],0,0,0,0,0,1,0,0,1,0,0,0,0,0,
CC(C)(C(=O)c1cccnc1)c1cccnc1 [METYRAPONE],,,,,,,,,,,,,,,HepSE_cholecystitis (Hepatotoxicity [1]; Liver): 0; HepSE_elevated liver function tests (Hepatotoxicity [2]; Liver): 0; HepSE_liver fatty (Hepatotoxicity [3]; Liver): 0; HepSE_bilirubinemia (Hepatotoxicity [4]; Liver): 0; HepSE_cirrhosis (Hepatotoxicity [5]; Liver): 0; HepSE_hepatitis (Hepatotoxicity [6]; Liver): 0; HepSE_jaundice (Hepatotoxicity [7]; Liver): 0; HepSE_liver function tests abnormal (Hepatotoxicity [8]; Liver): 0; HepSE_Combined Scores (Hepatotoxicity [9]; Liver): 0; HepSE_hepatic failure (Hepatotoxicity [10]; Liver): 0; HepSE_hepatomegaly (Hepatotoxicity [11]; Liver): 0; HepSE_liver disease (Hepatotoxicity [12]; Liver): 0; HepSE_cholelithiasis (Hepatotoxicity [13]; Liver): 0; HepSE_hepatic necrosis (Hepatotoxicity [14]; Liver): 0
Cc1cccc(C)c1OCC(C)N (stereo not drawn) [MEXILETINE],,,,,,,,,,,,,,,HepSE_cholecystitis (Hepatotoxicity [1]; Liver): 0; HepSE_elevated liver function tests (Hepatotoxicity [2]; Liver): 0; HepSE_liver fatty (Hepatotoxicity [3]; Liver): 0; HepSE_bilirubinemia (Hepatotoxicity [4]; Liver): 0; HepSE_cirrhosis (Hepatotoxicity [5]; Liver): 0; HepSE_hepatitis (Hepatotoxicity [6]; Liver): 1; HepSE_jaundice (Hepatotoxicity [7]; Liver): 0; HepSE_liver function tests abnormal (Hepatotoxicity [8]; Liver): 1; HepSE_Combined Scores (Hepatotoxicity [9]; Liver): 3; HepSE_hepatic failure (Hepatotoxicity [10]; Liver): 0; HepSE_hepatomegaly (Hepatotoxicity [11]; Liver): 0; HepSE_liver disease (Hepatotoxicity [12]; Liver): 0; HepSE_cholelithiasis (Hepatotoxicity [13]; Liver): 0; HepSE_hepatic necrosis (Hepatotoxicity [14]; Liver): 1
"CCCCCOc1ccc(-c2cc(-c3ccc(C(=O)N[C@H]4C[C@@H](O)[C@@H](O)NC(=O)[C@@H]5[C@@H](O)[C@@H](C)CN5C(=O)[C@H]([C@H](O)CC(N)=O)NC(=O)[C@H]([C@H](O)[C@@H](O)c5ccc(O)c(OS(=O)(=O)O)c5)NC(=O)[C@@H]5C[C@@H](O)CN5C(=O)[C@H]([C@@H](C)O)NC4=O)cc3)no2)cc1 [MICAFUNGIN] (X1-[Orn(4R-OH,5R-OH)]T[Hyp][hTyr(3S-OH,4S-OH,3'-OSO3H)][Gln(3R-OH)][Pro(3S-OH,4S-Me)]; lactam 1-C)",0,0,0,1,0,0,1,1,6,1,1,1,0,0,
Clc1ccc(COC(Cn2ccnc2)c2ccc(Cl)cc2Cl)c(Cl)c1 (stereo not drawn) [MICONAZOLE],0,0,0,0,0,0,0,0,0,0,0,0,0,0,
